Measured values published in patent US8008351B2, “Methods for prophylaxis or treatment of conditions associated with cortical spreading depression” (UCB Pharma GmbH, priority 2004, dated 2011).
Entries after “also recorded” stand apart in the source; their conditions may differ.

Tests used:
[1] = system: Calcitonin gene-related peptide (CGRP); test: CSD-induced CGRP release in jugular vein blood (CGRP EIA); format: in vivo, rat (Wistar); settings: for CGRP release expressed as percent of baseline levels, 10-15 min: 10-15 min after induction of CSD; for CGRP release expressed as percent of baseline levels, 10-15 min / CGRP release expressed as percent of baseline levels, 20-25 min / CGRP release expressed as percent of baseline levels, Baseline: n = 5; for CGRP release expressed as percent of baseline levels, 20-25 min: 20-25 min after induction of CSD; for CGRP release expressed as percent of baseline levels, Baseline: baseline (before CSD)
Experimental: (§1) All animal experiments were carried out according to the National Institute of Health (NIH) guidelines for the care and use of laboratory animals, and approved by the Ethical Committee of the National Laboratory Animal Center, Kuopio, Finland. Altogether 77 adult male Wistar rats, purchased from Harlan, Netherlands, and weighing 250-350 g were used for the experiment. Animals were housed at a standard temperature (22±1° C.) and in a light-controlled environment (lights on from 7 am to 9 pm) with ad libitum access to food and water. Animals were grouped as follows: • 15 rats treated with SPM 927 (3 mg/kg; i.p.) 30 min before the CSD episode • 15 rats treated with SPM 927 (10 mg/kg; i.p.) 30 min before the CSD episode • 15 rats treated with SPM 927 (30 mg/kg; i.p.) 30 min before the CSD episode • 15 rats treated with Valproic acid (250 mg/kg; i.p.) 30 min before the CSD episode • 15 rats treated with Vehicle (2 ml/kg; i.p.) 30 min before CSD episode • 2 sham rats without CSD episode (topical NaCl application) and without any treatment Subgroups: • 10 rats to DC-potential, CBF, and blood pH, pO2, pCO2, glucose and mean arterial pressure analysis (rats killed at 30 min after CSD, brains fresh-frozen) • 5 rats to jugular vein cannulation (CGRP sampling) and dural as well as cortical CGRP immunocytochemistry (rats killed at 15 min after CSD)
Following anesthesia (before CSD), a catheter was placed into the right jugular vein. 0.250 ml of blood was taken through the catheter for baseline measurement. For time course experiments further samples were taken at 10-15 and 20-25 min following initiation of CSD. Samples were stored in prepared Eppendorf tubes containing the protease inhibitors aprotinin (1000 KU, Bayer, Germany) and Pefabloc™ (1 mg/ml, Boehringer Mannheim, Germany), immediately cold centrifuged and stored at −80° C. The samples were acidified with trifluoroacetic acid and centrifuged at 6000 g for 20 min. The supernatant was extracted with Sep-Pak C-18 cartridges (Millipore, Waters, UK). Eluates were concentrated (dried) and dissolved in EIA buffer. CGRP concentrations were detected using a commercial CGRP EIA kit (S-3006, Bachem Distribution GmbH) according to the manufacturer's instructions.
All values were calculated as mean±standard deviation (SD) and differences were considered to be statistically significant as the P<0.05 level. Statistical analysis was performed using StatsDirect statistical software. Differences among means were analyzed by using one-way analysis of variance (ANOVA). Dunnet's post-hoc test was applied for multiple comparisons with a control group.

[2] = system: rat model of migraine (Cortical Spreading Depression, CSD); test: Cortical spreading depression (CSD) rat model of migraine: number of KCl-induced direct current (DC) potentials; format: in vivo, rat (Wistar); settings: for Number of DC: n = 10, mean ± SD
Experimental: as §1
Rats were anaethetized with Equithesin (3 ml/kg) and placed in a stereotactic frame. The rectal temperature was maintained at 37.0±1.0° C. with a homeothermic blanket system. A polyethylene catheter was inserted into the femoral artery in order to monitor arterial blood pressure and take blood samples for arterial pH, pO2, pCO2 and glucose. The arterial blood gases were measured with i-STAT portable clinical analyzer (I-STAT), arterial blood pressure monitored with Cardiocap II blood pressure analyzer (datex-Ohmeda, Helsinki, Finland) and blood glucose with standard glucose meter (Arkray, Japan). The measurements were taken 10 min before as well as 5 min after the CSD episode. The skin was opened by a medical incision and retracted laterally. Three skull burr holes were drilled in a row unilaterally. One was placed over the frontal cortex, the second frontoparietally and the third one parietally (FIG. 1). A laser-Doppler flow probe (Oxyflow, Oxford Optronics, UK) to monitor CBF and a non-invasive tungsten electrode for measuring direct current (DC) potential shifts were placed in the frontal and frontoparietal burr holes on the intact dura, respectively. The laser-Doppler flow probe was positioned in an area free of large pial and dural vessels to minimize a large-vessel contribution to the signal. For the DC-potential measurement, a reference electrode was fixed in the neck. CSDs were elicited unilaterally by placing a KCl-soaked (3.0 M) piece of filter paper on the parietal opening for 5 min. The KCl exposure was terminated by flushing the opening with saline and placing a dry piece of filter paper on the opening. The CBF and DC-potentials were monitored continuously starting from 5 minutes before CSD and continuing up to 30 min after the KCl exposure.
All values were calculated as mean±standard deviation (SD) and differences were considered to be statistically significant as the P<0.05 level. Statistical analysis was performed using StatsDirect statistical software. Differences among means were analyzed by using one-way analysis of variance (ANOVA). […]

[3] = rat model of migraine, pre-treatment, 3 doses

Structure (SMILES): COC[C@@H](NC(C)=O)C(=O)NCc1ccccc1 [SPM 927, (R)-2-acetamide-N-benzyl-3-methoxypropionamide]
- CGRP release expressed as percent of baseline levels, 10-15 min ([1]; 3 mg/kg i.p.): 126 ± 45%
- CGRP release expressed as percent of baseline levels, 20-25 min ([1]; 3 mg/kg i.p.): 35 ± 7%
- CGRP release expressed as percent of baseline levels, Baseline ([1]; 3 mg/kg i.p.): 100 ± 0%
- CGRP release expressed as percent of baseline levels, 10-15 min ([1]; 10 mg/kg i.p.): 114 ± 27%
- CGRP release expressed as percent of baseline levels, 20-25 min ([1]; 10 mg/kg i.p.): 66 ± 31%
- CGRP release expressed as percent of baseline levels, Baseline ([1]; 10 mg/kg i.p.): 100 ± 0%
- CGRP release expressed as percent of baseline levels, 10-15 min ([1]; 30 mg/kg i.p.): 92 ± 53%
- CGRP release expressed as percent of baseline levels, 20-25 min ([1]; 30 mg/kg i.p.): 71 ± 12%
- CGRP release expressed as percent of baseline levels, Baseline ([1]; 30 mg/kg i.p.): 100 ± 0%
- Effect on CSD-induced CGRP release / CGRP levels in blood (in words) [1, 3]: reduces; also recorded: significant suppression
- Number of DC ([2]; 3 mg/kg i.p. 30 min before CSD episode): 4.2 ± 0.4
- Number of DC ([2]; 10 mg/kg i.p. 30 min before CSD episode): 3.3 ± 0.4
- Number of DC ([2]; 30 mg/kg i.p. 30 min before CSD episode): 3.5 ± 0.6
- Effect on CSD / number of CSD-induced DC-potentials (in words) [2, 3]: reduces; also recorded: significant suppression

Structure (SMILES): CCCC(CCC)C(=O)O [Valproic acid, reference compound]
- CGRP release expressed as percent of baseline levels, 10-15 min ([1]; 250 mg/kg i.p.): 56 ± 8%
- CGRP release expressed as percent of baseline levels, 20-25 min ([1]; 250 mg/kg i.p.): 71 ± 15%
- CGRP release expressed as percent of baseline levels, Baseline ([1]; 250 mg/kg i.p.): 100 ± 0%
- Number of DC ([2]; 250 mg/kg i.p. 30 min before CSD episode): 3.7 ± 0.3
